Experimental data from patent US7674818B2, “Aryl, aryloxy, alkyloxy substituted 1H-indol-3-yl glyoxylic acid derivatives as inhibitors of plasminogen activator inhibitor-1 (PAI-1)” (Wyeth LLC, priority 2002, dated 2010).

What was measured:
[1] = target: human PAI-1 (Homo sapiens, UniProt P05121); assay: Assay for determining IC50 of inhibition of PAI-1 (active PAI-1 bound to tPA-coated plate, 33B8 antibody detection); assay type: biochemical; conditions: human PAI-1 50 ng/ml, pH 7.5, tPA-coated plate
Experimental: Assay for Determining IC50 OF Inhibition of PAI-1
This assay was based upon the non-SDS dissociable interaction between tPA and active PAI-1. Assay plates were initially coated with human tPA (10 μg/ml). The test compounds were dissolved in DMSO at 10 mM, then diluted with physiologic buffer (pH 7.5) to a final concentration of 1-50 μM. The test compounds were incubated with human PAI-1 (50 ng/ml) for 15 minutes at room temperature. The tPA-coated plate was washed with a solution of 0.05% Tween 20 and 0.1% BSA, then the plate is blocked with a solution of 3% BSA. An aliquot of the test compound/PAI-1 solution was then added to the tPA-coated plate, incubated at room temperature for 1 hour, and washed. Active PAI-1 bound to the plate was assessed by adding an aliquot of a 1:1000 dilution of the 33B8 monoclonal antibody against human PAI-1, and incubating the plate at room temperature for 1 hour (Molecular Innovations, Royal Oak, Mich.). The plate was again washed, and a solution of goat anti-mouse IgG-alkaline phosphatase conjugate is added at a 1:50,000 dilution in goat serum. The plate was incubated 30 minutes at room temperature, washed, and a solution of alkaline phosphatase substrate was added. The plate was incubated 45 minutes at room temperature, and color development was determined at OD405 nm. The quantitation of active PAI-1 bound to tPA at varying concentrations of the test compound was used to determine the IC50. Results were analyzed using a logarithmic best-fit equation. The assay sensitivity was 5 ng/ml of human PAI-1 as determined from a standard curve ranging from 0-100 ng/ml.

[2] = target: T1, recombinant human plasminogen activator inhibitor-1 (Homo sapiens, UniProt P05121); assay: Primary screen for the PAI-1 inhibition (residual tPA activity, Spectrozyme-tPA chromogenic substrate); assay type: biochemical; conditions: pH 6.6 buffer, 140 nM PAI-1, 70 nM tPA; for inhibition at 25 µM / Inhibition @25 uM (%): test compound 25 uM; for Inhibition (%) (100 uM): test compound 100 uM (cell annotated "(100 uM)" instead of 25 uM)
T1 construct: purchased Molecular Innovations, Royal Oak, Mich
Experimental: Primary Screen for the PAI-1 Inhibition
Test compounds were dissolved in DMSO at a final concentration of 10 mM, then diluted 100× in physiologic buffer. The inhibitory assay was initiated by the addition of the test compound (1-100 μM final concentration, maximum DMSO concentration of 0.2%) in a pH 6.6 buffer containing 140 nM recombinant human plasminogen activator inhibitor-1 (Molecular Innovations, Royal Oak, Mich.). Following a 1 hour incubation at room temperature, 70 nM of recombinant human tissue plasminogen activator (tPA) was added, and the combination of the test compound, PAI-1 and tPA was incubated for an additional 30 minutes. Following the second incubation, Spectrozyme-tPA (American Diagnostica, Greenwich, Conn.), a chromogenic substrate for tPA, was added and absorbance read at 405 nm at 0 and 60 minutes. Relative PAI-1 inhibition was equal to the residual tPA activity in the presence of the test compound and PAI-1. Control treatments included the complete inhibition of tPA by PAI-1 at the molar ratio employed (2:1), and the absence of any effect of the test compound on tPA alone.

T1 sequence (P05121 24-402): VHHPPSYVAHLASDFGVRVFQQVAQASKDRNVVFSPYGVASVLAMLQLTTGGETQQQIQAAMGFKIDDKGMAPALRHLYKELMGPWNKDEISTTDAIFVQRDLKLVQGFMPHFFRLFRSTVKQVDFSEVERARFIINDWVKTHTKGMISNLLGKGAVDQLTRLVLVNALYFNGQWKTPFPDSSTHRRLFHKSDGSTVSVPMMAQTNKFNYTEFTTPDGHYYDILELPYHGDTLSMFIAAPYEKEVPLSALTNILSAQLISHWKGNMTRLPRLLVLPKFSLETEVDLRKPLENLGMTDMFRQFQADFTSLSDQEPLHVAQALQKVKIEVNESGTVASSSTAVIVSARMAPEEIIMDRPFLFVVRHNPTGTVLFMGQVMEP
human PAI-1, sequence (P05121 24-402): as above

Molecule	inhibition at 25 µM [2]	Inhibition (%) (100 uM) [2]	also measured
Cc1ccc2c(c1)c(C(=O)C(=O)O)cn2-c1ccc(OCc2cccc(Cl)c2)cc1 [Example 6, {1-[4-(3-Chlorobenzyloxy)phenyl]-5-methyl-1H-indol-3-yl}(oxo)acetic acid]	54%	–	IC50 [1]: > 25 µM
Cc1ccc2c(c1)c(C(=O)C(=O)O)cn2-c1ccc(OCc2ccc(Cl)cc2Cl)cc1 [Example 8, {1-[4-(2,4-Dichlorobenzyloxy)phenyl]-5-methyl-1H-indol-3-yl}(oxo)acetic acid]	–	34%	–
CCOC(=O)c1ccc(COc2ccc(-n3cc(C(=O)C(=O)O)c4cc(F)ccc43)cc2)o1 [Example 14, 5-[4-(5-Fluoro-3-carboxy(oxo)methyl-1H-indol-1-yl)phenoxymethyl]furan-2-carboxylic acid ethyl ester]	–	–	Inhibition @25 uM (%) [2]: 43%
N#Cc1ccc(COc2ccc(-n3cc(C(=O)C(=O)O)c4ccccc43)cc2)cc1 [Example 1, (1-{4-[(4-Cyanobenzyl)oxy]phenyl}-1H-indol-3-yl)(oxo)acetic acid]	23%	–	–
COc1cc(COc2cccc(-n3cc(C(=O)C(=O)O)c4cc(Cl)ccc43)c2)cc(OC)c1 [Example 10, {5-Chloro-1-[3-(3,5-dimethoxybenzyloxy)phenyl]-1H-indol-3-yl}(oxo)acetic acid]	1%	–	–
O=C(O)C(=O)c1cn(Cc2ccccc2)c2ccc(Oc3ccc(C(F)(F)F)cc3Cl)cc12 [Example 23, [1-Benzyl-5-(2-chloro-4-trifluoromethyl-phenoxy)-1H-indol-3-yl](oxo)acetic acid]	52%	–	IC50 [1]: 12.3 µM; melting point: 152 to 154 °C
O=C(O)C(=O)c1cn(-c2cccc(OCc3cc(Cl)nc(Cl)c3)c2)c2ccc(Cl)cc12 [Example 19, {5-Chloro-1-[3-(2,6-dichloropyridin-4-ylmethoxy)phenyl]-1H-indol-3-yl}(oxo)acetic acid]	46%	–	–
Cc1ccc2c(c1)c(C(=O)C(=O)O)cn2-c1ccc(OCc2cc(Cl)nc(Cl)c2)cc1 [Example 15, {1-[4-(2,6-dichloropyridin-4-ylmethoxy)phenyl]-5-methyl-1H-indol-3-yl}(oxo)acetic acid]	5%	–	–
O=C(O)C(=O)c1cn(Cc2ccc(F)cc2)c2ccc(OCCc3ccc(F)cc3)cc12 [Example 21]	6%	–	melting point: 171 to 173 °C
O=C(O)C(=O)c1cn(-c2cccc(OCc3c(F)c(F)c(C(F)(F)F)c(F)c3F)c2)c2ccc(Cl)cc12 [Example 16, {5-Chloro-1-[3-(2,3,5,6-tetrafluoro-4-trifluoromethylbenzyloxy)phenyl]1H-indol-3-yl}(oxo)acetic acid]	75%	–	IC50 [1]: > 25 µM
Cc1ccc2c(c1)c(C(=O)C(=O)O)cn2-c1ccc(OCc2ccc(C(C)(C)C)cc2)cc1 [Example 7, {1-[4-(4-tert-Butylbenzyloxy)phenyl]-5-methyl-1H-indol-3-yl}(oxo)acetic acid]	62%	–	–
{1-[4-(3-Chlorobenzyloxy) phenyl]-1H-indol-3-yl}(oxo)acetic acid [Example 3]	–	–	IC50 [1]: > 25 µM; Inhibition @25 uM (%) [2]: 78%
C=CCOc1ccc2c(c1)c(C(=O)C(=O)O)cn2CCc1ccc(Br)cc1 [Example 30, {5-Allyloxy-1-[2-(4-bromophenyl)-ethyl]-1H-indol-3-yl}-oxo-acetic acid]	29%	–	–
C=CCOc1ccc2c(c1)c(C(=O)C(=O)O)cn2CCc1cccc(C(F)(F)F)c1 [Example 29, {5-Allyloxy-1-[2-(3-trifluoromethylphenyl)-ethyl]-1H-indol-3-yl}-oxo-acetic acid]	–	29%	–
COc1cc(COc2ccc(-n3cc(C(=O)C(=O)O)c4cc(F)ccc43)cc2)cc(OC)c1 [Example 5, {1-[4-(3,5-Dimethoxybenzyloxy)phenyl]-5-fluoro-1H-indol-3-yl}(oxo)acetic acid]	26%	–	–
N#Cc1ccc(COc2ccc(-n3cc(C(=O)C(=O)O)c4cc(F)ccc43)cc2)cc1 [Example 4, {1-[4-(4-Cyanobenzyloxy)phenyl]-5-fluoro-1H-indol-3-yl}(oxo)acetic acid]	–	40%	–
N#Cc1ccc(COc2cccc(-n3cc(C(=O)C(=O)O)c4cc(Cl)ccc43)c2)cc1 [Example 9, {5-Chloro-1-[3-(4-cyanobenzyloxy)phenyl]-1H-indol-3-yl}(oxo)acetic acid]	44%	–	–
5-[3-(5-Chloro-3-carboxy(oxo)methyl-1H-indol-1-yl)phenoxymethyl]furan-2-carboxylic acid ethyl ester [Example 17]	–	49%	–
O=C(O)C(=O)c1cn(-c2ccc(OCc3c(F)c(F)c(C(F)(F)F)c(F)c3F)cc2)c2ccccc12 [Example 11, {1-[4-(2,3,5,6-tetrafluoro-4-trifluoromethylbenzyloxy)phenyl]1H-indol-3-yl}(oxo)acetic acid]	66%	–	–
C=CCOc1ccc2c(c1)c(C(=O)C(=O)O)cn2Cc1ccc2c(c1)OCO2 [Example 26, (5-Allyloxy-1-benzo[1,3]dioxol-5-ylmethyl-1H-indol-3-yl)-oxo-acetic acid]	–	8%	–
C=CCOc1ccc2c(c1)c(C(=O)C(=O)O)cn2CCc1ccc(OC)cc1 [Example 27, {5-Allyloxy-1-[2-(4-methoxy-phenyl)-ethyl]-1H-indol-3-yl}-oxo-acetic acid]	–	16%	–
O=C(O)C(=O)c1cn(-c2ccc(OCc3cc(Cl)nc(Cl)c3)cc2)c2ccccc12 [Example 13, {1-[4-(2,6-Dichloropyridin-4-ylmethoxy)phenyl]1H-indol-3-yl}(oxo)acetic acid]	39%	–	–
O=C(O)C(=O)c1cn(-c2ccc(OCc3ccc(-c4csnn4)cc3)cc2)c2ccccc12 [Example 12, {1-[4-(4-[1,2,3]thiadiazol-4-ylbenzyloxy)phenyl]-1H-indol-3-yl}(oxo)acetic acid]	–	32%	–
COc1cccc(COc2ccc(-n3cc(C(=O)C(=O)O)c4ccccc43)cc2)c1 [Example 2, {1-[4-(3-Methoxybenzyloxy)phenyl]-1H-indol-3-yl}(oxo)acetic acid]	43%	–	–
C=CCOc1ccc2c(c1)c(C(=O)C(=O)O)cn2CCc1cccc2ccccc12 [Example 28, [5-Allyloxy-1-(2-naphthalen-1-yl-ethyl)-1H-indol-3-yl]-oxo-acetic acid]	12%	–	–
O=C(O)C(=O)c1cn(-c2ccc(OC(F)(F)F)cc2)c2ccc(-c3ccc(OC(F)(F)F)cc3)cc12 [Example 20, [1,5-Bis-(4-trifluoromethoxy-phenyl)-1H-indol-3-yl]-oxo-acetic acid]	56%	–	IC50 [1]: > 25 µM
O=C(O)C(=O)c1cn(Cc2ccccc2)c2ccc(OCc3ccccc3)cc12 [Example 22, (1-Benzyl-5-benzyloxy-1H-indol-3-yl)-oxo-acetic acid]	13%	–	–
C=CCOc1ccc2c(c1)c(C(=O)C(=O)O)cn2CC1CCC1 [Example 24, (5-Allyloxy-1-cyclobutylmethyl-1H-indol-3-yl)-oxo-acetic acid]	–	13%	–
C=CCOc1ccc2c(c1)c(C(=O)C(=O)O)cn2CCc1ccccc1 [Example 25, (5-Allyloxy-1-phenethyl-1H-indol-3-yl)-oxo-acetic acid]	–	8%	–
O=C(O)C(=O)c1cn(-c2cccc(OCc3ccc(-c4csnn4)cc3)c2)c2ccc(Cl)cc12 [Example 18, {5-Chloro-1-[3-(4-[1,2,3]thiadiazol-4-ylbenzyloxy)phenyl]-1H-indol-3-yl}(oxo)acetic acid]	45%	–	–
